Measurements published in US20240315242A1, “Antibacterial Compound” (LG Chem, Ltd., priority 2021, published 2024).

System: E. coli (ATCC 25922)
Assay: Evaluation of antibacterial property against E. coli (absorbance at 600 nm)
Format: cell-based, Escherichia coli
Details: injection amount of compound 0.01 g in 25 mL nutrient broth with E. coli ATCC 25922 at 3000 CFU/mL; 16 hours at 35° C.; absorbance at 600 nm vs pure culture medium
Protocol: [formula] • in the equation, • As(Asample) represents absorbance of the culture medium containing the bacteriostatic substance at a wavelength of 600 nm, and • A0(Areference) represents absorbance of the pure culture medium without the bacteriostatic substance at a wavelength of 600 nm.
(1) Evaluation of Antibacterial Property Against E. coli
25 mL of a nutrient broth culture medium inoculated with E. coli (ATCC 25922) at 3000 CFU/mL was transferred to a 50 ml conical tube, and then the antibacterial compounds (bacteriostatic substances) prepared in Preparation Examples and Comparative Preparation Examples were injected in each amount described in Table 2 below, followed by sufficiently mixing. Thereafter, incubation was performed for 16 hours in a shaking incubator (Visiontech, VS-37SIF) maintained at 35° C.
The incubated solution was diluted to ⅕ using 1×PBS buffer solution, and absorbance at the wavelength of 600 nm was measured for the diluted solution using a UV-Vis Spectrophotometer (K Lab, Optizen POP). In addition, E. coli (ATCC 25922) was cultured in a pure culture medium without the antibacterial compound for 16 hours in a shaking incubator (VISION TECH, VS-37SIF) maintained at 35° C., which was prepared as a control, and absorbance at the wavelength of 600 nm was measured in the same manner as above.
Then, antibacterial rates (%) of E. coli (ATCC 25922) were calculated according to the following Equation 1, and the results are shown in Table 2 below.
[formula] • in the equation, • As(Asample) represents absorbance of the culture medium containing the bacteriostatic substance at a wavelength of 600 nm, and • A0(Areference) represents absorbance of the E. coli pure culture medium without the bacteriostatic substance at a wavelength of 600 nm.

SMILES	Antibacterial rate (%)
C=C(C)C(=O)OCC[N+](C)(C)CCCCCCCCCC [Compound 1]	95.3
C=C(C)C(=O)OCC[N+](C)(C)CCCCCCCCCCCC [Compound 2]	98.1
C=CC(=O)OCC[N+](C)(C)CCCCCCCCCCCC [Compound 3]	97.3
C=CC(=O)OCC[N+](C)(C)CCCCCCCCCC [Compound 5]	95.8
C=CC(=O)OCC[N+](C)(C)CCCCCCCC [Compound 6]	70.6
C=C(C)C(=O)OCC[N+](C)(C)CCCCCCCC [Compound B, reference compound]	69.2
C=CC(=O)OCC[N+](C)(C)CCCCCCCC [Compound E, reference compound]	62.3
